Assay results: article PMC7408547, “Bivalent Inhibitor with Selectivity for Trimeric MMP-9 Amplifies Neutrophil Chemotaxis and Enables Functional Studies on MMP-9 Proteoforms” (Cells, 2020)
Several values for one entry are separate records, joined by “and”; a condition that tells them apart may be missing. Equal values may be shown once.

What was measured:
[1] = biological target: T1, recombinant human MMP-9 monomers (Homo sapiens, UniProt P14780); assay: Fluorogenic peptide (OmniMMP) degradation assay, recombinant MMP-9 monomers; assay type: biochemical; conditions: recombinant human MMP-9 (Sf9) mono
T1 construct: made in house; host or cells: Sf9 insect cells
T1 sequence (P14780 107-707 limits assumed): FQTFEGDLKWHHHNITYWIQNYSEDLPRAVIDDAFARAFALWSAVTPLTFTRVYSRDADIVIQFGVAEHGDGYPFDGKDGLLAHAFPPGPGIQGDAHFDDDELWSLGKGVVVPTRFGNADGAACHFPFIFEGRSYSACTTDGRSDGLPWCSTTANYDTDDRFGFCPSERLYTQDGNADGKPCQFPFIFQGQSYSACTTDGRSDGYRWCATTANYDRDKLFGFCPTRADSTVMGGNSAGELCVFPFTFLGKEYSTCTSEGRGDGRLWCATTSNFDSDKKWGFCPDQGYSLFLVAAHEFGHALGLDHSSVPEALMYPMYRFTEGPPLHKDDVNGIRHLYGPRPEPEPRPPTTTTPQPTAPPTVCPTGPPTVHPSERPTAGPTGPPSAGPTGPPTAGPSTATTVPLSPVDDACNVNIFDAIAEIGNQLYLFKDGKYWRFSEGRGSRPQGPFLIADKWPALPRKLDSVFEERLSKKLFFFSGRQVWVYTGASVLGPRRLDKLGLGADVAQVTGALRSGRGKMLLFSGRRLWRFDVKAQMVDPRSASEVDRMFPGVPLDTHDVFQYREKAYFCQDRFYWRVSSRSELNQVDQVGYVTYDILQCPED
Description: Compounds 5 and 7 were synthesized as previously reported. Full-length human proMMP-9 was produced by recombinant expression in Sf9 insect cells and purified by gelatin-Sepharose chromatography as previously described. Stable full-length proMMP-9 monomers and trimers were separated by glycerol gradient ultracentrifugation as previously described. ProMMP-9 mixture and the separated monomers and trimers were activated by incubation with the catalytic domain of MMP-3 (cat. No. 444217, Merck Millipore, Darmstadt, Germany) as previously described. Activation of proMMP-9 was confirmed by a band shift of ±10 kDa, corresponding to the removal of the auto-inhibitory propeptide domain and by detection of gelatinolytic activity with a previously described gelatin degradation assay. MMP-9 monomers and trimers purified from human neutrophils were purchased (Cat. No. 444,231 and 444232, Sigma-Aldrich, St. Louis, MO, USA). Examples of sample purities and activations can be found in Supplementary Figure S1. Recombinant human proMMP-2 (CHO cell-derived), proMMP-3 (NS0 cell-derived), proMMP-7 (NS0 cell-derived) and proMMP-8 (NS0 cell-derived) were purchased from R & D systems (Minneapolis, MN, USA), dissolved in assay buffer (150 mM NaCl, 5 mM CaCl2, 0.01% Tween-20, 50 mM Tris, pH 7.4) to a concentration of 100 µg/mL and activated by incubation with 1 mM p-aminophenylmercuric acetate for, respectively, 1h, 6h, 2h and 1h. Activation of MMPs was confirmed by a band shift of approximately 10 kDa, corresponding to the removal of the propeptide domain. MMP-14/MT1-MMP (NS0 cell-derived) was also purchased from R & D systems (Minneapolis, MN, USA) and activated by incubation with recombinant human furin (cat. No. 1503-SE-010, R & D systems, Minneapolis, MO, USA) in activation buffer (50 mM Tris, 1 mM CaCl2, 0.5% Brij-35, pH 9) for 1.5 h and activity was tested in assay buffer (50 mM Tris, 3 mM CaCl2, 1 µM ZnCl2, pH 8.5). Active human neutrophil elastase (NE) was purchased from Abcam (Cambridge, UK) and for activity assays of NE the assay buffer was replaced by 200 mM Tris, pH 8.8. ADAM17/TACE (Sf 21 (baculovirus)-derived, R & D systems, Minneapolis, MO, USA) was diluted and evaluated in 25 mM Tris, 2.5 μM ZnCl2, 0.005% Brij-35, pH 9.0. All stocks of the compounds were evaluated for the presence of endotoxin using the EndoZyme II assay (Hyglos bioMérieux, Bernried am Starnberger See, Germany). Endotoxin levels in all concentrated stocks (2.5 mg/mL) were below the accepted limit of 0.5 EU/mL.
To determine the inhibition of gelatinolytic activity, we used a previously optimized gelatin degradation assay. […] […] […] BML-P126-0001, Enzo Life Sciences, Farmingdale, NY, USA) was used at a final concentration of 2.5 µg/mL. For ADAM17 the fluorogenic peptide Mca-PLAQAV-Dpa-RSSSR-NH2 (ES003, R & D systems, Minneapolis, MO, USA) and for neutrophil elastase the fluorogenic substrate MeOSuc-AAPV-AMC (cat. no. 324740, Merck Millipore, Darmstadt, Germany) were used. Proteolytic activity was determined by linear regression of the fluorescence curve and the percentage inhibition was calculated through comparison with the positive control (no inhibitors). When testing supernatants from human neutrophils, the assay was performed in the presence of 20 µM neutrophil elastase inhibitor (Elastase Inhibitor IV, Calbiochem, Darmstadt, Germany).

MMP-2 = biological target: T2, MMP-2 (Homo sapiens, UniProt P08253); assay: MMP-2 OmniMMP peptide assay; assay type: biochemical; conditions: OmniMMP substrate peptide
T2 construct: purchased R & D systems; host or cells: CHO cells
T2 sequence (P08253 110-660): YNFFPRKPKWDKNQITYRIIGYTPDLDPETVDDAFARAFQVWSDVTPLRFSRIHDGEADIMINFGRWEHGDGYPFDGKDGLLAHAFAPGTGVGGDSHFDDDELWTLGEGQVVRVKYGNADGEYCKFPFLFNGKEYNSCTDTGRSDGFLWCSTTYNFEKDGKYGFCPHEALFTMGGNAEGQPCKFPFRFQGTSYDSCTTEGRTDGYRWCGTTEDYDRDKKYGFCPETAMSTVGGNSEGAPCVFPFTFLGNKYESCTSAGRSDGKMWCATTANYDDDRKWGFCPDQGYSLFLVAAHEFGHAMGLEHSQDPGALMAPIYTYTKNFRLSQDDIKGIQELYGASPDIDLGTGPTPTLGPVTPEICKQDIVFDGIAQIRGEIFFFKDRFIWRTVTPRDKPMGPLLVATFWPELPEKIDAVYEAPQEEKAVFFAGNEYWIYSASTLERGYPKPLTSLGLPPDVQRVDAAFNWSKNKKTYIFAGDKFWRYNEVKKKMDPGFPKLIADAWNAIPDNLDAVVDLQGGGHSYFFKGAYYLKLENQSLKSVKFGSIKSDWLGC
Description: Compounds 5 and 7 were synthesized as previously reported. Full-length human proMMP-9 was produced by recombinant expression in Sf9 insect cells and purified by gelatin-Sepharose chromatography as previously described. Stable full-length proMMP-9 monomers and trimers were separated by glycerol gradient ultracentrifugation as previously described. ProMMP-9 mixture and the separated monomers and trimers were activated by incubation with the catalytic domain of MMP-3 (cat. No. 444217, Merck Millipore, Darmstadt, Germany) as previously described. Activation of proMMP-9 was confirmed by a band shift of ±10 kDa, corresponding to the removal of the auto-inhibitory propeptide domain and by detection of gelatinolytic activity with a previously described gelatin degradation assay. […] ADAM17/TACE (Sf 21 (baculovirus)-derived, R & D systems, Minneapolis, MO, USA) was diluted and evaluated in 25 mM Tris, 2.5 μM ZnCl2, 0.005% Brij-35, pH 9.0. All stocks of the compounds were evaluated for the presence of endotoxin using the EndoZyme II assay (Hyglos bioMérieux, Bernried am Starnberger See, Germany). […]
To determine the inhibition of gelatinolytic activity, we used a previously optimized gelatin degradation assay. […] Proteolytic activity was determined by linear regression of the fluorescence curve and the percentage inhibition was calculated through comparison with the positive control (no inhibitors). […]

SMILES	IC25 [1]	IC50 [1]	IC75 [1]	IC50 (MMP-2)
CC(C)[C@H](C(=O)O)N(CCNC(=O)c1cccc(C(=O)NCCN([C@@H](C(=O)O)C(C)C)S(=O)(=O)c2ccc(-c3ccccc3)cc2)c1)S(=O)(=O)c1ccc(-c2ccccc2)cc1 [Compound 7]	0.0105 µM	0.056 µM	0.296 µM	~0.005 µM and 0.005 µM
CC(C)[C@H](C(=O)O)N(CCNC(=O)c1ccccc1)S(=O)(=O)c1ccc(-c2ccccc2)cc1 [Compound 5]	0.232 µM	0.718 µM	2.228 µM	1.03 µM
